Assay: Example 4a: noncompartmental pharmacokinetics of exhaled 2-butanone and 2-pentanone by mGC;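 for TThresh: time until breath level first exceeds the mGC detection limit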
Format: in vivo, human
Description: Test Materials. […] 2-butanol was purchased from Penta Manufacturing Company (Fairfield, N.J.). 2-pentanol and L-carvone were purchased from Sigma-Aldrich (St. Louis, Mo.). […] 2-pentanone was also used as a taggant, but we hypothesized that its inherent volatility would allow exhalation without need for metabolism. L-carvone tastes like spearmint and was used as a flavor mask. All capsules were filled on the day of the experiment.
Subject Enrollment and Protocol. This protocol (20100140) was approved by the Western Institutional Review Board (Olympia, Wash.). Healthy subjects (n=5) aged >18 years of age and of either sex were recruited. Informed, written consent was obtained from all enrolled subjects. The study consisted of a single experimental limb with six replicates per subject. Therefore, for five subjects with six replicated experiments, a total of 30 studies were performed. Subjects were free to eat ad lib prior to participation in the study. At commencement of the experiments, subjects provided a baseline breath sample (designated time 0 min) into the mGC for analysis as described subsequently. Then, subjects orally consumed the previously detailed capsule with 177 mL (6 ounces) of water. Following ingestion, we observed the breath concentration-time relationships of 2-butanone and 2-pentanone by collecting single-breath samples at times 5, 10, 15, 20, 30, 45, and 60 min. After 60 min, the experiment was concluded. After at least one day's respite, subjects returned for replicate experiments on five additional occasions.
2-Butanone and 2-Pentanone Measurement in Human Breath by mGC. Breath specimens were analyzed “real-time” to measure the concentrations of 2-butanone and 2-pentanone using the mGC (Xhale, Inc. Gainesville, Fla.) as previously described. In brief, a mouthpiece (FST®, Intoximeters, Inc., St. Louis, Mo.) was attached to the inlet of the mGC. A 15 mL side-stream sample was aspirated during a single exhalation over 5 s through this inlet port to a room temperature concentrator trap containing 4 mg of Tenax TA (Sigma-Aldrich). The trap temperature was then increased to 130° C. and the volatile components transferred to a 5 m by 0.53 mm internal diameter, metal clad, BAC-1 capillary column (Restek Corp, Bellefonte, Pa.) operated at 55° C. The effluent from the column then flowed to the metal oxide detectors. Separation of the markers from other volatile organic compounds present in the sample (i.e., acetone and isoprene) occurred in approximately 2 min. Data were tabulated and graphically presented over time to determine the concentrations of 2-butanone and 2-pentanone in a given breath specimen. Data are reported in parts-per-billion (ppb) based on molar fractions to account for differing ambient atmospheric pressures and temperature.
Pharmacokinetic Analysis. Analyte breath concentrations reported as ppb were converted to ng/mL by multiplying each concentration by the molecular weight of the respective molecule to allow proper functioning of conventional PK software for noncompartmental analysis (WinNonlin 5.2, Pharsight Corporation, St. Louis, Mo.). Estimates were generated for the following PK parameters (abbreviation, unit): first-order elimination rate constant (Lambda Z, min-1), half-life of elimination (Half-life, min), maximal drug concentration (CMAX, μg/mL), time at maximal drug concentration (TMAX, min), area under concentration versus time curve from zero to the last time point (AUC0-LAST, min*μg/mL), area under concentration versus time curve from zero to infinity (AUC0-∞, min*μg/mL), percentage of area under concentration versus time curve from zero to infinity, which is extrapolated from AUC0-t (% AUC Extrap) and the mean residence time (MRT, min). The area under concentration versus time curve (AUC) was calculated using the linear trapezoidal rule. All values are reported separately for each subject as mean±standard deviation following conversion from ng/mL to ppb. […]

CCC(C)=O [Formulation 2-butanone, 2-butanone]
% AUC Extrap (30 observations): 17.9% | AUC0-8 (30 observations): 51190 min · ppb | AUC0-LAST (30 observations): 41820 min · ppb | CMAX (30 observations): 1376 ppb | Half-life (30 observations): 216 min | LAMBDA_Z (30 observations): 0.036 min⁻¹ | MRT0-last (30 observations): 25.7 min | TMAX (30 observations): 17.8 min | % AUC Extrap (REPLICATE 1): 41.3% | AUC0-LAST (REPLICATE 1): 53278 min · ppb | AUC0-∞ (REPLICATE 1): 64618 min · ppb | CMAX (REPLICATE 1): 1793 ppb | Half-life (REPLICATE 1): 21.1 min | LAMBDA_Z (REPLICATE 1): 0.036 min⁻¹ | MRT0-last (REPLICATE 1): 24.4 min | TMAX (REPLICATE 1): 15.0 min | TThresh (REPLICATE 1, same 5 subjects): 5.0 min | % AUC Extrap (REPLICATE 2): 47.3% | AUC0-LAST (REPLICATE 2): 44693 min · ppb | AUC0-∞ (REPLICATE 2): 58070 min · ppb | CMAX (REPLICATE 2): 1361 ppb | Half-life (REPLICATE 2): 24.1 min | LAMBDA_Z (REPLICATE 2): 0.033 min⁻¹ | MRT0-last (REPLICATE 2): 28.3 min | TMAX (REPLICATE 2): 21.0 min | TThresh (REPLICATE 2): 7.0 min | % AUC Extrap (REPLICATE 3): 31.3% | AUC0-LAST (REPLICATE 3): 36508 min · ppb | AUC0-∞ (REPLICATE 3): 42226 min · ppb | CMAX (REPLICATE 3): 1175 ppb | Half-life (REPLICATE 3): 16.4 min | LAMBDA_Z (REPLICATE 3): 0.048 min⁻¹ | MRT0-last (REPLICATE 3): 24.8 min | TMAX (REPLICATE 3): 17.0 min | TThresh (REPLICATE 3): 6.0 min | % AUC Extrap (REPLICATE 4): 37.3% | AUC0-LAST (REPLICATE 4): 44467 min · ppb | AUC0-∞ (REPLICATE 4): 52141 min · ppb | CMAX (REPLICATE 4): 1449 ppb | Half-life (REPLICATE 4): 21.2 min | LAMBDA_Z (REPLICATE 4): 0.038 min⁻¹ | MRT0-last (REPLICATE 4): 23.9 min | TMAX (REPLICATE 4): 19.0 min | TThresh (REPLICATE 4): 6.0 min | % AUC Extrap (REPLICATE 5): 54.6% | AUC0-LAST (REPLICATE 5): 37792 min · ppb | AUC0-∞ (REPLICATE 5): 491783 min · ppb | CMAX (REPLICATE 5): 1227 ppb | Half-life (REPLICATE 5): 27.7 min | LAMBDA_Z (REPLICATE 5): 0.026 min⁻¹ | MRT0-last (REPLICATE 5): 26.6 min | TMAX (REPLICATE 5): 15.0 min | TThresh (REPLICATE 5): 7.0 min | % AUC Extrap (REPLICATE 6): 39.2% | AUC0-LAST (REPLICATE 6): 34184 min · ppb | AUC0-∞ (REPLICATE 6): 40905 min · ppb | CMAX (REPLICATE 6): 1251 ppb | Half-life (REPLICATE 6): 18.9 min | LAMBDA_Z (REPLICATE 6): 0.037 min⁻¹ | MRT0-last (REPLICATE 6): 26.5 min | TMAX (REPLICATE 6): 20.0 min | TThresh (REPLICATE 6): 6.0 min | % AUC Extrap (SUBJECT 1): 22.6% | AUC0-LAST (SUBJECT 1): 45298 min · ppb | AUC0-∞ (SUBJECT 1): 59106 min · ppb | CMAX (SUBJECT 1): 1297 ppb | Half-life (SUBJECT 1): 22.6 min | LAMBDA_Z (SUBJECT 1): 0.033 min⁻¹ | MRT0-last (SUBJECT 1): 29.3 min | TMAX (SUBJECT 1): 21.7 min | TThresh (SUBJECT 1, six replicates): 6.7 min | % AUC Extrap (SUBJECT 2): 19.2% | AUC0-LAST (SUBJECT 2): 66466 min · ppb | AUC0-∞ (SUBJECT 2): 82628 min · ppb | CMAX (SUBJECT 2): 1926 ppb | Half-life (SUBJECT 2): 20.6 min | LAMBDA_Z (SUBJECT 2): 0.034 min⁻¹ | MRT0-last (SUBJECT 2): 27.7 min | TMAX (SUBJECT 2): 20.8 min | TThresh (SUBJECT 2): 5.0 min | % AUC Extrap (SUBJECT 3): 23.2% | AUC0-LAST (SUBJECT 3): 19608 min · ppb | AUC0-∞ (SUBJECT 3): 25623 min · ppb | CMAX (SUBJECT 3): 1021 ppb | Half-life (SUBJECT 3): 30.7 min | LAMBDA_Z (SUBJECT 3): 0.024 min⁻¹ | MRT0-last (SUBJECT 3): 22.7 min | TMAX (SUBJECT 3): 11.7 min | TThresh (SUBJECT 3): 5.8 min | % AUC Extrap (SUBJECT 4): 12.6% | AUC0-LAST (SUBJECT 4): 68147 min · ppb | AUC0-∞ (SUBJECT 4): 77593 min · ppb | CMAX (SUBJECT 4): 2238 ppb | Half-life (SUBJECT 4): 16.4 min | LAMBDA_Z (SUBJECT 4): 0.043 min⁻¹ | MRT0-last (SUBJECT 4): 26.2 min | TMAX (SUBJECT 4): 18.3 min | TThresh (SUBJECT 4): 5.8 min | % AUC Extrap (SUBJECT 5): 12.0% | AUC0-LAST (SUBJECT 5): 9581 min · ppb | AUC0-∞ (SUBJECT 5): 10999 min · ppb | CMAX (SUBJECT 5): 398 ppb | Half-life (SUBJECT 5): 17.5 min | LAMBDA_Z (SUBJECT 5): 0.046 min⁻¹ | MRT0-last (SUBJECT 5): 22.9 min | TMAX (SUBJECT 5): 16.7 min | TThresh (SUBJECT 5): 7.5 min | observed CMAX range (across subjects): 398-2,238 ppb | half life in breath (after oral 2-butanol (40 and 60 mg) to humans): 11 to 22 min | TThresh (mean of 30 observations (5 subjects, 6 replicates), oral 2-butanol 60 mg + 2-pentanone 60 mg): 6.2 min

Reference: patent publication US20170074857A1, “MEDICATION ADHERENCE MONITORING DEVICE” (UNIVERSITY OF FLORIDA RESEARCH FOUNDATION, INC., priority 2014, published 2017)
